# Test results taken from patent publication US20230119479A1, “A HISTONE DEACETYLASE INHIBITOR HAVING A NITROGEN-CONTAINING AROMATIC HETEROCYCLYL GROUP” (SHIONOGI & CO., LTD., priority 2019, published 2023).
# Target: T1, HDAC2 Human recombinant C-terminal FLAG-tag (Homo sapiens, UniProt Q92769)
# T1 construct: FLAG (C); purchased BPS Bioscience 50052
# Experiment: Measurement of HDAC2 enzyme inhibitory activity (HTRF)
# Assay type: biochemical
# Conditions: recombinant HDAC2, H3K9ac peptide, 3 hours room temperature; read-out: HDAC2 IC50
# Description: Test Example 1: Measurement of HDAC2 Enzyme Inhibitory Activity
# The HDAC2 enzyme inhibitory activity was measured by the method described in the following test example.
# To each well of a 384-well plate (Corning, 4514), DMSO solution of the test compound was dispensed at 50 nL/well from a final concentration of 99 μM to 8 points (n=2) in the 3-fold dilution series using Echo555 (Beckman Coulter). 2.5 μl of 0.005 mg/mL recombinant enzyme HDAC2 (HDAC2 Human recombinant C-terminal FLAG-tag, BPS Bioscience, 50052) was added to each well, 2.5 μl of 0.6 μM H3K9ac peptide (Lys(Ac)9-Histone H3 (1-21)-GGK(Biotin), AnaSpec, 64361) was added, mixed, and reacted in a wet box at room temperature for 3 hours. 50 mM Tris HCL pH8.0, 137 mM sodium chloride, 2.7 mM potassium chloride, 1 mM magnesium chloride, 0.01% Tween20, and 0.1% BSA which were diluted with ultrapure water were used as a reaction buffer at this time. After the reaction, 5 μL of 10 μM SAHA (suberoylanilide hydroxamic acid) as a reaction terminator and the 5 μL of a mixture of 2.5 ng of H3K9me0 antibody (ActiveMotif, 61399) labeled in-house with europium cryptate (Cisbio, 65EUSABA) and 125 nM streptavidin-XL665 (Cisbio, 610SAXLA) as an HTRF (time-resolved fluorescence) reagent were added to each well, mixed, and allowed to stand in a wet box at room temperature for reaction. A detection buffer used at this time was 50 mM Tris HCL pH 8.0, 0.8 M potassium fluoride, and 0.1% BSA which were diluted with ultrapure water. After reacting for 2 hours or more, HTRF was measured using a multi-plate reader such as SpectraMax Paradigm (MOLECULAR DEVICE) or RUBYstar (BMG LABTECH). Ratio (665 nm/615-620 nm×10000) was calculated from the fluorescence values of two wavelengths, 615-620 nm and 665 nm, which were excited at 320-340 nm, and the energy transition was obtained.
# T1 sequence (Q92769 whole entry): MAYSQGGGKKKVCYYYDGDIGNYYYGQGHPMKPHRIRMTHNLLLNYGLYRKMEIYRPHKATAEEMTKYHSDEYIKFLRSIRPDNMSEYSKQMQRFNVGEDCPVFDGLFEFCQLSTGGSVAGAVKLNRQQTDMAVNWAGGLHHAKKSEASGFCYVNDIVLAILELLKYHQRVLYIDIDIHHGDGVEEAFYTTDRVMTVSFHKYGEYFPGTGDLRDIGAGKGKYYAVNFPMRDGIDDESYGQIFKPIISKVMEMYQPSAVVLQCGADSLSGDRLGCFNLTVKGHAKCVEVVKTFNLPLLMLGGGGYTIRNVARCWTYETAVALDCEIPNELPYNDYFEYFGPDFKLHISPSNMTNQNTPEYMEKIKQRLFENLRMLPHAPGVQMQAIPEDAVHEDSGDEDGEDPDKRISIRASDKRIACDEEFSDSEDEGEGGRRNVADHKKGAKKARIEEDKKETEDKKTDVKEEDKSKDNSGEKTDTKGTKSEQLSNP
row,SMILES,IC50
1,Nc1ccc(-c2ccc(F)nc2)cc1NC(=O)c1ccc2c(n1)OCO2 [Compound I-183],48 nM
2,Nc1ccc(-c2cncs2)cc1NC(=O)c1ccc2c(n1)CCCC2 [Compound I-082],340 nM
3,COc1cnc(C(=O)Nc2cc(-c3cncs3)ccc2N)cn1 [Compound I-099],72 nM
4,Cc1ccc(C(=O)Nc2cc(-c3cnn(C)c3)ccc2N)nn1 [Compound I-257],570 nM
5,Nc1ccc(-c2ccc(F)nc2)cc1NC(=O)c1cccnn1 [Compound I-115],440 nM
6,COCCOc1cnc(C(=O)Nc2cc(-c3cnn(C)c3)ccc2N)cn1 [Compound I-230],250 nM
7,CCOc1ccc(C(=O)Nc2cc(-c3ccc(F)nc3)ccc2N)nc1 [Compound I-164],210 nM
8,COCc1ccc(C(=O)Nc2cc(-c3cnn(C)c3)ccc2N)nc1 [Compound I-207],250 nM
9,CC(C)Oc1ccc(C(=O)Nc2cc(-c3ccc(F)nc3)ccc2N)nn1 [Compound I-289],200 nM
10,Nc1ccc(-n2cccc2)nc1NC(=O)c1ccc(N2CCOCC2)cn1 [Compound I-206],500 nM
11,Nc1ccc(-c2ccc(F)nc2)cc1NC(=O)c1ccc(N2CCC2)nn1 [Compound I-266],140 nM
12,CC(C)c1cnc(C(=O)Nc2cc(-c3ccc(F)nc3)ccc2N)cn1 [Compound I-251],110 nM
13,Cn1cc(-c2ccc(C(=O)Nc3cc(-c4ccco4)ccc3N)nc2)cn1 [Compound I-005],220 nM
14,Cn1cc(-c2ccc(N)c(NC(=O)c3cnc(NCc4ccccn4)cn3)c2)cn1 [Compound I-294],70 nM
15,Cn1cc(-c2ccc(N)c(NC(=O)c3cnc(N4CCCOCC4)cn3)c2)cn1 [Compound I-296],70 nM
16,Nc1ccc(-n2ccc(F)c2)cc1NC(=O)c1cnc(NCc2ccccn2)cn1 [Compound I-302],80 nM
17,Cn1cc(-c2ccc(N)c(NC(=O)c3cnc(NC4CCOCC4)cn3)c2)cn1 [Compound I-290],110 nM
18,CN(C)c1cnc(C(=O)Nc2nc(-c3ccc(F)nc3)ccc2N)cn1 [Compound I-247],380 nM
19,Cn1cc(-c2ccc(N)c(NC(=O)c3ccc(N4CCCC4)nn3)c2)cn1 [Compound I-272],230 nM
20,Nc1ccc(-c2cncs2)cc1NC(=O)c1ccc2[nH]ccc2n1 [Compound I-081],280 nM
21,Cn1cc(-c2ccc(N)c(NC(=O)c3ccc(C(C)(C)C)cn3)c2)cn1 [Compound I-201],260 nM
22,COc1cnc(C(=O)Nc2cc(-c3ccc(F)nc3)ccc2N)cn1 [Compound I-120],240 nM
23,Nc1ccc(-c2ccc(F)nc2)cc1NC(=O)c1ccc(CO)cn1 [Compound I-192],220 nM
24,Cn1cccc1-c1cc(C(=O)Nc2cc(-c3cncs3)ccc2N)no1 [Compound I-199],200 nM

row,SMILES,IC50
1,Cn1cc(-c2ccc(C(=O)Nc3cc(-c4ccc(F)nc4)ccc3N)nc2)cn1 [Compound I-033],88 nM
2,Nc1ccc(-c2ccc(F)nc2)cc1NC(=O)c1ccc(Cl)nn1 [Compound I-264],270 nM
3,COc1ccnc(C(=O)Nc2cc(-c3ccc(F)nc3)ccc2N)c1 [Compound I-150],310 nM
4,Cn1cc(-c2ccc(C(=O)Nc3cc(-n4cccc4)ccc3N)nc2)cn1 [Compound I-056],120 nM
5,COc1ccc(C(=O)Nc2cc(-c3ccc(F)nc3)ccc2N)nn1 [Compound I-253],150 nM
6,Cn1cc(-c2ccc(N)c(NC(=O)c3ccc4c(n3)OCO4)c2)cn1 [Compound I-216],100 nM
7,CCOc1ccc(C(=O)Nc2cc(-c3cnn(C)c3)ccc2N)nn1 [Compound I-269],180 nM
8,Nc1ccc(-c2ccc(F)nc2)cc1NC(=O)c1cnc(C(F)F)cn1 [Compound I-145],340 nM
9,Nc1ccc(-c2ccc(F)nc2)cc1NC(=O)c1ccc2c(n1)OCC(=O)N2 [Compound I-184],49 nM
10,Cn1cc(-c2cnc(C(=O)Nc3nc(-c4ccccc4)ccc3N)cn2)cn1 [Compound I-039],420 nM
11,Nc1ccc(-c2ccc(F)nc2)cc1NC(=O)c1cnc(NCc2ccccn2)cn1 [Compound I-277],40 nM
12,CCc1cnc(C(=O)Nc2nc(-c3ccccc3)ccc2N)cn1 [Compound I-260],470 nM
13,Cn1cc(-c2ccc(N)c(NC(=O)c3cnc(C(C)(C)C)cn3)c2)cn1 [Compound I-204],340 nM
14,Nc1ccc(-c2ccc(F)nc2)cc1NC(=O)c1cnc(-n2cncn2)cn1 [Compound I-128],180 nM
15,Nc1ccc(-c2ccc(F)nc2)cc1NC(=O)c1cnc(N2CCCC2)cn1 [Compound I-240],80 nM
16,Cc1cnc(C(=O)Nc2cc(-c3cnn(C)c3)ccc2N)cn1 [Compound I-138],200 nM
17,Cc1nnc(-c2ccc(C(=O)Nc3cc(-c4ccc(F)nc4)ccc3N)nc2)o1 [Compound I-133],110 nM
18,Nc1ccc(-c2cncs2)cc1NC(=O)c1ccc2c(n1)CCC2 [Compound I-083],160 nM
19,CN(C)c1cnc(C(=O)Nc2cc(-c3cnco3)ccc2N)cn1 [Compound I-202],60 nM
20,Nc1ccc(-c2ccc(F)nc2)cc1NC(=O)c1cnc(NCC(F)(F)F)cn1 [Compound I-288],230 nM
21,Cn1cc(-c2cnc(C(=O)Nc3cc(-c4cnco4)ccc3N)cn2)nn1 [Compound I-012],94 nM
22,Cn1cc(-c2ccc(N)c(NC(=O)c3ccc(Cl)nn3)c2)cn1 [Compound I-270],970 nM
23,COCCOc1ccc(C(=O)Nc2nc(-n3cccc3)ccc2N)nc1 [Compound I-182],350 nM
24,CCN(C)c1cnc(C(=O)Nc2cc(-c3cnn(C)c3)ccc2N)cn1 [Compound I-237],160 nM

row,SMILES,IC50
1,Nc1ccc(-c2cncs2)cc1NC(=O)c1cc2ccncc2cn1 [Compound I-060],47 nM
2,COC(=O)c1ccc(C(=O)Nc2cc(-c3ccc(F)nc3)ccc2N)nc1 [Compound I-185],140 nM
3,Nc1ccc(-c2ccc(F)nc2)cc1NC(=O)c1cnc(N2CC3(CCC3)C2)cn1 [Compound I-223],90 nM
4,Cn1cc(-c2ccc(C(=O)Nc3cc(-c4cnco4)ccc3N)nc2)cn1 [Compound I-004],64 nM
5,Nc1ccc(-n2ccc(F)c2)cc1NC(=O)c1cnc(N2CCOCC2)cn1 [Compound I-267],100 nM
6,COc1cnc(C(=O)Nc2cc(-c3cnn(C)c3)ccc2N)nc1 [Compound I-258],870 nM
7,CC(C)c1cnc(C(=O)Nc2cc(-c3cnn(C)c3)ccc2N)cn1 [Compound I-252],170 nM
8,Nc1ccc(-n2cccc2)nc1NC(=O)c1ccc2c(n1)OCC(=O)N2 [Compound I-234],240 nM
9,C#Cc1ccc(C(=O)Nc2cc(-c3cncs3)ccc2N)nc1 [Compound I-058],130 nM
10,CC(=O)Nc1ccc(C(=O)Nc2nc(-c3ccccc3)ccc2N)nc1 [Compound I-281],230 nM
11,Cc1cnc(C(=O)Nc2nc(-n3cccc3)ccc2N)cn1 [Compound I-171],430 nM
12,Cn1cc(-c2cnc(C(=O)Nc3cc(-c4cnco4)ccc3N)cn2)cn1 [Compound I-009],61 nM
13,Cn1cc(-c2cc(C(=O)Nc3cc(-c4cncs4)ccc3N)no2)cn1 [Compound I-196],55 nM
14,CC(C)Oc1ccc(C(=O)Nc2cc(-c3cnn(C)c3)ccc2N)nn1 [Compound I-293],340 nM
15,Cc1ccc(C(=O)Nc2cc(-c3ccc(F)nc3)ccc2N)nn1 [Compound I-256],260 nM
16,Nc1ccc(-c2cncs2)cc1NC(=O)c1cc2c(cn1)OC(F)(F)O2 [Compound I-074],270 nM
17,Cn1cc(-c2ccc(C(=O)Nc3cc(-c4ccon4)ccc3N)nc2)cn1 [Compound I-084],310 nM
18,Nc1ccc(-c2ccc(F)nc2)cc1NC(=O)c1ccc(N2CCOCC2)nn1 [Compound I-262],100 nM
19,CCc1ccc(C(=O)Nc2cc(-c3cnn(C)c3)ccc2N)nc1 [Compound I-175],170 nM
20,CCCCc1ccc(C(=O)Nc2cc(-c3cncs3)ccc2N)nc1 [Compound I-057],320 nM
21,Nc1ccc(-c2ccc(F)nc2)cc1NC(=O)c1cc2c(cn1)OCCO2 [Compound I-097],160 nM
22,Nc1ccc(-c2cncs2)cc1NC(=O)c1ccc(OC(F)(F)F)cn1 [Compound I-021],220 nM

# Same assay, conditions: recombinant HDAC2, H3K9ac peptide; read-out: IC50 (HDAC2)
row,SMILES,IC50
1,CC(=O)Nc1cnc(C(=O)Nc2cc(-c3ccc(F)nc3)ccc2N)cn1 [Compound I-310],92 nM
2,CS(=O)(=O)Nc1cnc(C(=O)Nc2cc(-c3ccc(F)nc3)ccc2N)cn1 [Compound I-311],150 nM
3,CCC(=O)Nc1ccc(C(=O)Nc2cc(-c3ccc(F)nc3)ccc2N)nc1 [Compound I-306],48 nM
4,CCC(=O)Nc1ccc(C(=O)Nc2nc(-c3ccccc3)ccc2N)nc1 [Compound I-308],280 nM
